Numbers after ± are expanded uncertainties.
How the values were obtained:
[1] = Crystal; DTA
[2] = Molar enthalpy of transition or fusion; conditions: Crystal; DSC

Normal melting temperature [1] [°C] | Molar enthalpy of transition or fusion [2] [kcal/mol] | Compound
41.27 ± 5 | 15.8 ± 0.43 | CCCCCCCCCCCCCCCCOC(=O)CCCCCCCCCCCCCCC [cetyl palmitate]
211.78 ± 5 | 9.22 ± 0.263 | O=C(O)c1cc(-c2ccc(F)cc2F)ccc1O [2',4'-difluoro-4-hydroxy-1,1'-biphenyl-3-carboxylic acid]
 | 12.1 ± 0.335 | CCCCCCCCCCCCCCCCCC(=O)O [octadecanoic acid]

From the NIST ThermoML archive (doi:10.1016/j.tca.2016.09.014)
